Measured values as given in PubChem BioAssay (NCI).
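In this assay, cells in 96-well plates receive the compound at five concentrations for 48 hours. Endpoints are linearly interpolated between the surrounding concentrations. Here, GI50 denotes the concentration required for 50% inhibition of growth. TGI: concentration producing complete growth inhibition.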

The compounds below were run on OVCAR-5 ovarian (assay: growth of human tumour cells (NCI), 48 h).

`O=C(CC1Sc2ccccc2NC1=O)Nc1ccccc1[N+](=O)[O-]` (configuration not stated) and `O=C1OC(c2ccccc2)=N/C1=C\c1ccc([N+](=O)[O-])cc1` cannot be ordered by TGI: over 100 µM for the first, over 100 µM for the second.

Going from `CCOC(=O)c1csc(NC(=O)CN2CCCC2)n1` to `COc1cc(/C=C2\CN(S(=O)(=O)c3ccc(C)cc3)C/C(=C\c3cc(CN4CCCC4)c(O)c(OC)c3)C2=O)cc(CN2CCCC2)c1O`, the TGI falls from over 100 µM to 3.84 µM.

`CC1NC(=O)C(C)C(c2ccccc2)N(N=O)C1c1ccccc1` (configuration not stated) and `CON(C)C(=O)C(Cc1ccccc1)NC(=O)OCc1ccccc1` (configuration not stated) cannot be ordered by TGI: over 100 µM for the first, over 100 µM for the second.

First: CO[C@](C(=O)OC[C@H]1[C@@H](COC(C)=O)[C@@H]2O[C@H]1c1cc3c(cc12)OCO3)(c1ccccc1)C(F)(F)F
Second: Cc1ccc(C(=O)OC(C(=O)O)C(OC(=O)c2ccc(C)cc2)C(=O)O)cc1 (configuration not stated) (tested in a mixture with another compound)
The TGI of the first is higher: over 100 µM for the first, 24.6 µM for the second.

First: O=C(O)Cc1ccc([N+](=O)[O-])cc1[N+](=O)[O-]
Second: CCCCCCOc1ccc(/C=N/Nc2cc(C)nc3ccc(Cl)cc23)cc1
The TGI of the first is higher: over 100 µM for the first, 3.35 µM for the second.

In order of falling GI50:
1. COc1cc(/C=C2\CN(S(=O)(=O)c3ccc(C)cc3)C/C(=C\c3cc(CN4CCCC4)c(O)c(OC)c3)C2=O)cc(CN2CCCC2)c1O  2.27 µM
2. CCCCCCOc1ccc(/C=N/Nc2cc(C)nc3ccc(Cl)cc23)cc1  1.92 µM

Each compound was assayed on MDA-MB-435 (assay: growth of human tumour cells (NCI), 48 h).

First: CCOC(=O)c1csc(NC(=O)CN2CCCC2)n1
Second: COc1cc(/C=C2\CN(S(=O)(=O)c3ccc(C)cc3)C/C(=C\c3cc(CN4CCCC4)c(O)c(OC)c3)C2=O)cc(CN2CCCC2)c1O
The TGI of the first is higher: over 100 µM for the first, 2.97 µM for the second.

Going from `O=C1OC(c2ccccc2)=N/C1=C\c1ccc([N+](=O)[O-])cc1` to `CCCCCCOc1ccc(/C=N/Nc2cc(C)nc3ccc(Cl)cc23)cc1`, the TGI falls from over 100 µM to 3.15 µM.

`CO[C@](C(=O)OC[C@H]1[C@@H](COC(C)=O)[C@@H]2O[C@H]1c1cc3c(cc12)OCO3)(c1ccccc1)C(F)(F)F` and `O=C(O)Cc1ccc([N+](=O)[O-])cc1[N+](=O)[O-]` cannot be ordered by TGI: over 100 µM for the first, over 100 µM for the second.

In order of falling GI50:
1. CCCCCCOc1ccc(/C=N/Nc2cc(C)nc3ccc(Cl)cc23)cc1  1.71 µM
2. COc1cc(/C=C2\CN(S(=O)(=O)c3ccc(C)cc3)C/C(=C\c3cc(CN4CCCC4)c(O)c(OC)c3)C2=O)cc(CN2CCCC2)c1O  1.53 µM

What follows are compounds tested on RXF 393 renal (assay: growth of human tumour cells (NCI), 48 h).

`O=C(CC1Sc2ccccc2NC1=O)Nc1ccccc1[N+](=O)[O-]` (configuration not stated) and `O=C1OC(c2ccccc2)=N/C1=C\c1ccc([N+](=O)[O-])cc1` cannot be ordered by TGI: over 100 µM for the first, over 100 µM for the second.

`CCOC(=O)c1csc(NC(=O)CN2CCCC2)n1` and `CON(C)C(=O)C(Cc1ccccc1)NC(=O)OCc1ccccc1` (configuration not stated) cannot be ordered by TGI: over 100 µM for the first, over 100 µM for the second.

First: CCn1cnc2c(=S)nc(N)[nH]c21
Second: CCCCCCOc1ccc(/C=N/Nc2cc(C)nc3ccc(Cl)cc23)cc1
The TGI of the first is higher: over 100 µM for the first, 2.97 µM for the second.

First: CC1NC(=O)C(C)C(c2ccccc2)N(N=O)C1c1ccccc1 (configuration not stated)
Second: Cc1ccc(C(=O)OC(C(=O)O)C(OC(=O)c2ccc(C)cc2)C(=O)O)cc1 (configuration not stated) (tested in a mixture with another compound)
The TGI of the first is higher: over 100 µM for the first, 16 µM for the second.

Work on `O=C(O)Cc1ccc([N+](=O)[O-])cc1[N+](=O)[O-]` yielded a TGI of over 100 µM.

`CCCCCCOc1ccc(/C=N/Nc2cc(C)nc3ccc(Cl)cc23)cc1` showed a GI50 of 1.56 µM.

What follows are compounds tested on COLO 205 colon (assay: growth of human tumour cells (NCI), 48 h).

`O=C(CC1Sc2ccccc2NC1=O)Nc1ccccc1[N+](=O)[O-]` (configuration not stated) and `O=C1OC(c2ccccc2)=N/C1=C\c1ccc([N+](=O)[O-])cc1` cannot be ordered by TGI: over 100 µM for the first, over 100 µM for the second.

Compared with `CCOC(=O)c1csc(NC(=O)CN2CCCC2)n1`, `COc1cc(/C=C2\CN(S(=O)(=O)c3ccc(C)cc3)C/C(=C\c3cc(CN4CCCC4)c(O)c(OC)c3)C2=O)cc(CN2CCCC2)c1O` is lower in TGI: over 100 µM for the first, 2.03 µM for the second.

Going from `CCn1cnc2c(=S)nc(N)[nH]c21` to `CCCCCCOc1ccc(/C=N/Nc2cc(C)nc3ccc(Cl)cc23)cc1`, the TGI falls from over 100 µM to 3.04 µM.

`CC1NC(=O)C(C)C(c2ccccc2)N(N=O)C1c1ccccc1` (configuration not stated) and `CON(C)C(=O)C(Cc1ccccc1)NC(=O)OCc1ccccc1` (configuration not stated) cannot be ordered by TGI: over 100 µM for the first, over 100 µM for the second.

Compared with `CO[C@](C(=O)OC[C@H]1[C@@H](COC(C)=O)[C@@H]2O[C@H]1c1cc3c(cc12)OCO3)(c1ccccc1)C(F)(F)F`, `Cc1ccc(C(=O)OC(C(=O)O)C(OC(=O)c2ccc(C)cc2)C(=O)O)cc1` (configuration not stated) (tested in a mixture with another compound) is 8.9-fold lower in TGI: 93.2 µM for the first, 10.5 µM for the second.

`O=C(O)Cc1ccc([N+](=O)[O-])cc1[N+](=O)[O-]` was tested, and the TGI was over 100 µM.

In order of falling GI50:
1. CCCCCCOc1ccc(/C=N/Nc2cc(C)nc3ccc(Cl)cc23)cc1  1.58 µM
2. COc1cc(/C=C2\CN(S(=O)(=O)c3ccc(C)cc3)C/C(=C\c3cc(CN4CCCC4)c(O)c(OC)c3)C2=O)cc(CN2CCCC2)c1O  0.568 µM

What follows are compounds tested on LOX IMVI melanoma (assay: growth of human tumour cells (NCI), 48 h).

`O=C(CC1Sc2ccccc2NC1=O)Nc1ccccc1[N+](=O)[O-]` (configuration not stated) and `O=C1OC(c2ccccc2)=N/C1=C\c1ccc([N+](=O)[O-])cc1` cannot be ordered by TGI: over 100 µM for the first, over 100 µM for the second.

First: CCOC(=O)c1csc(NC(=O)CN2CCCC2)n1
Second: COc1cc(/C=C2\CN(S(=O)(=O)c3ccc(C)cc3)C/C(=C\c3cc(CN4CCCC4)c(O)c(OC)c3)C2=O)cc(CN2CCCC2)c1O
The TGI of the first is higher: over 100 µM for the first, 2.02 µM for the second.

`CCn1cnc2c(=S)nc(N)[nH]c21` and `CC1NC(=O)C(C)C(c2ccccc2)N(N=O)C1c1ccccc1` (configuration not stated) cannot be ordered by TGI: over 100 µM for the first, over 100 µM for the second.

Compared with `O=C(O)Cc1ccc([N+](=O)[O-])cc1[N+](=O)[O-]`, `Cc1ccc(C(=O)OC(C(=O)O)C(OC(=O)c2ccc(C)cc2)C(=O)O)cc1` (configuration not stated) (tested in a mixture with another compound) is lower in TGI: over 100 µM for the first, 20.6 µM for the second.

For `COc1cc(/C=C2\CN(S(=O)(=O)c3ccc(C)cc3)C/C(=C\c3cc(CN4CCCC4)c(O)c(OC)c3)C2=O)cc(CN2CCCC2)c1O`, the GI50 was 0.649 µM.
